According to patent publication EP2992879B1, “PHARMACEUTICAL COMPOSITION FOR […] OF MOTOR NEURONS AND USE THEREOF” (China Medical University, priority 2012, dated 2014):

Experiments:
LC3-II [1] = assay: Western blotting of autophagy biomarker in spinal cord; type: in vivo, mice; details: cervical, thoracic and lumbar spinal cord, compared with untreated control; oral 500 mg/kg-body weight once daily; β-actin internal control
Procedure: SOD1-G93A transgenic mice (60-day-old) were treated with butylidenephthalide by oral administration, with a dosage of 500 mg/ kg-body weight once daily. It has been indicated by research that SOD1-G93A transgenic mice lost its spinal motor neurons because of the significant increase of autophagy during the last phase of amyotrophic lateral sclerosis (which can be seen in In vivo optical imaging of motor neuron autophagy in a mouse model of amyotrophic lateral sclerosis. Autophagy 7:9, 1-8; September 2011, which is entirely incorporated hereinto by reference). Therefore, in this example, the SOD1-G93A transgenic mice in experimental group were sacrificed in extremis to collect their spinal cord, and the proteins were extracted from the spinal cord to perform Western blotting and to analyze the protein biomarker of autophagy, LC3-II, which was used to determine whether autophagy occurred in the lumbar spinal motor neurons of the mice, wherein β-actin was used as an internal control.

LC3-II [2] = assay: Cellular experiment: Western blotting of LC3-II in NSCs after H2O2 stimulation of autophagy; type: cell-based, mouse; details: 10 µg/mL for 12 hours, then H2O2 (2500 µM/mL) for 12 hours
Procedure: Cellular experiment was performed by using NSCs (neural stem cells) which can differentiate into mouse motor neurons to imitate mouse motor neurons.
NSCs were incubated in a culture dish (10 cm in diameter). The cells were washed with PBS when grown to a density of 60% confluence, and treated with different concentrations of butylidenephthalide for 12 hours. The cells were then treated with H2O2 (2500 µM/mL) for 12 hours to stimulate the autophagy of cells. Then, the cells were collected and the proteins were extracted, and the protein expression level of LC3-II in NSC was analyzed by SDS-PAGE and Western blotting.

[3] = tested on: SOD1-G93A transgenic mice; assay: Histochemical staining (hematoxylin and eosin): count of spinal motor neurons; type: in vivo; details: spinal cord, mice sacrificed in extremis
Procedure: SOD1-G93A transgenic mice (60-day-old) were treated with butylidenephthalide by oral administration, with a dosage of 500 mg/ kg-body weight once daily. The SOD1-G93A transgenic mice in the experimental group were sacrificed in extremis, and the spinal cord was collected to perform hematoxylin and eosin stain. The number of motor neurons in the spinal cord was observed and counted by using a microscope, and the data was compared with that of the untreated control group.

[4] = tested on: SOD1-G93A transgenic mice; assay: In vivo analysis: survival of SOD1-G93A transgenic mice; details: 60-day-old SOD1-G93A transgenic mice, oral administration, 500 mg/kg-body weight once daily; for Survival days: n = 8, untreated control 127 ± 6.11, 500 mg/kg
Excerpt: It has been known that about 20% of amyotrophic lateral sclerosis patients were associated with mutations in the gene that encodes Cu/Zn superoxide dismutase enzyme (SOD1), and G93A was the major mutation site. […] A SOD1-G93A transgenic mouse will show the symptoms of amyotrophic lateral sclerosis within about 90±5 days postnatal and will die within about 125±5 days postnatal.
This example used the above SOD1-G93A transgenic mice as the object of study to perform in vivo analysis. SOD1-G93A transgenic mice (60-day-old) were treated with butylidenephthalide (purchased from ECHO Chemical) by oral administration, with a dosage of 500 mg/ kg-body weight once daily, wherein the unit "mg/kg-body weight" means the dosage required per kg-body weight. […]

[5] = tested on: SOD1-G93A transgenic mice; assay: In vivo analysis: BBB Locomotor Rating Scale of the hind limbs; details: oral 500 mg/kg-body weight once daily from day 60
Procedure: SOD1-G93A transgenic mice (60-day-old) were treated with butylidenephthalide by oral administration, with a dosage of 500 mg/ kg-body weight once daily. After the mice were treated for 30 days, the hind limbs of the mice were examined by BBB scale (Basso, Beattie, and Bresnahan (BBB) Locomotor Rating Scale). The BBB scale of the hind limbs of normal mice was 21 points, while the BBB scale of disease-progressed SOD1-G93A transgenic mice decreased from 21 to 0 points, wherein the lower scale represents a more severe action disorder in the mice. BBB scale is used to record the drug efficiency.

In the case of `CCCC=C1OC(=O)c2ccccc21` [butylidenephthalide], the “protein expression level of LC3-II and pLC3-II” value (LC3-II [1]) was “significantly decreased”, the “protein expression level of LC3-II in NSC” value (LC3-II [2]) was “decrease the protein expression level of LC3-II” and the “The number of motor neurons” value ([3]; oral 500 mg/kg-body weight once daily from day 60, control 3 ± 3.1) was 24. For the same compound, the “The number of motor neurons” value ([3]; oral 500 mg/kg-body weight once daily from day 60, control 3 ± 3.1, listed as n-BP) was 24 ± 4.2, the “life lengthened as compared to the untreated control group” value [4] was “about 22 ± 2 days” and the Survival days [4] was “about 149 ± 4.39 days”. For the same compound, the Survival days ([4]; listed as n-BP) was 149 ± 4.39 days, the “BBB scale of the hind limbs” value ([5]; after 135 days (decreased rapidly)) was 16 to 0 points and the “BBB scale of the hind limbs” value ([5]; from 125 to 135 days (decreased slowly), normal mice 21 points, control fell from 19 to 0 after 110 days) was 21 to 16 points.
